A short description of series [1]: microcentrifuge dissolution test (in vitro evaluation of concentration enhancement). The format is physicochemical. As to conditions: for AUC: area under concentration-versus-time curve in PBS pH 6.5, 37° C.; for Concentration: dissolved torcetrapib in supernatant, 1000 μg/mL if all drug dissolved. Here is the method: The solid composition of Example 1 was evaluated in vitro using a microcentrifuge dissolution test as follows. For this test, a sufficient amount of material was added to a microcentrifuge test tube so that the concentration of torcetrapib would have been 1000 μg/mL, if all of the drug had dissolved. The test was run in duplicate. The tubes were placed in a 37° C. temperature-controlled chamber, and 1.8 mL PBS at pH 6.5 and 290 mOsm/kg was added to each respective tube. The samples were quickly mixed using a vortex mixer for about 60 seconds. The samples were centrifuged at 13,000 G at 37° C. for 1 minute. The resulting supernatant solution was then sampled and diluted 1:6 (by volume) with methanol and then analyzed by HPLC. The contents of each tube were mixed on the vortex mixer and allowed to stand undisturbed at 37° C. until the next sample was taken. Samples were collected at 4, 10, 20, 40, 90, and 1200 minutes. Control 1 (C1) consisted of crystalline torcetrapib alone, and a sufficient amount of material was added so that the concentration of drug would have been 1000 μg/mL, if all of the drug had dissolved. The concentrations of drug obtained in these samples were used to determine the maximum drug concentration (“MDC90”) and the area under the concentration-versus-time curve (“AUC90”) during the initial ninety minutes.

Another series in a line: aqueous solubility. The format is physicochemical. As to conditions: aqueous medium; aqueous solubility determined at about 22° C. unless otherwise specified. Here is the method:
A second property of hydrophobic drugs is that they have low aqueous solubility. […] Extremely low aqueous solubility often leads to poor or slow absorption of the drug from the fluid of the gastrointestinal tract, when the drug is dosed orally in a conventional manner. For extremely low solubility drugs, absorption generally becomes progressively more difficult as the dose (mass of drug given orally) increases. Thus, a third property of hydrophobic drugs is a very high dose (in mg) to solubility (In mg/ml) ratio (ml). By “very high dose-to-solubility ratio” is meant that the dose-to-solubility ratio may have a value of at least 1000 ml, at least 5,000 ml, or even at least 10,000 ml. The dose-to-solubility ratio may be determined by dividing the dose (in mg) by the aqueous solubility (in mg/ml).
CETP inhibitors, in particular torcetrapib, and methods for preparing such compounds are disclosed in detail in U.S. Pat. Nos. 6,197,786 and 6,313,142, in PCT Application Nos. WO 01/40190A1, WO 02/088085A2, and WO 02/088069A2, the disclosures of which are herein incorporated by reference. Torcetrapib has an unusually low solubility in aqueous environments such as the lumenal fluid of the human GI tract. The aqueous solubility of torcetrapib is less than about 0.04 μg/ml. […]

Setting [2] is: during the initial ninety minutes, PBS pH 6.5, 37° C.

By AUC is commonly meant the area under the concentration-time curve, a measure of exposure. Usually solubility stands for how much of the substance goes into solution per volume. Low values mean a poorly soluble substance, high ones a readily soluble substance.

On to `CCOC(=O)N1c2ccc(C(F)(F)F)cc2[C@@H](N(Cc2cc(C(F)(F)F)cc(C(F)(F)F)c2)C(=O)OC)C[C@H]1CC` [torcetrapib, [2R,4S]-4-[(3,5-bis-trifluoromethyl-benzyl)-methoxycarbonyl-amino]-2-ethyl-6-trifluoromethyl-3,4-dihydro-2H-quinoline-1-carboxylic acid ethyl ester], for which the AUC is 0 µg·min/mL in series [1] (up to time 0 min); less than 2 µg·min/mL in series [1] (up to time 4 min); less than 8 µg·min/mL in series [1] (up to time 10 min); less than 18 µg·min/mL in series [1] (up to time 20 min); less than 38 µg·min/mL in series [1] (up to time 40 min); less than 88 µg·min/mL in series [1] (up to time 90 min). The AUC in series [1] (up to time 1200 min) is recorded as <1,200 min*μg/mL. Also, the C1200 in series [1] (concentration at 1200 minutes, PBS pH 6.5, 37° C.) is less than 1 µg/mL. The Concentration in series [1] (PBS pH 6.5, 37° C., time 0 min) is 0 ng/mL; in series [1] (PBS pH 6.5, 37° C., time 4 min), less than 1000 ng/mL; in series [1] (PBS pH 6.5, 37° C., time 10 min), less than 1000 ng/mL; in series [1] (PBS pH 6.5, 37° C., time 20 min) it was less than 1000 ng/mL; in series [1] (PBS pH 6.5, 37° C., time 40 min), less than 1000 ng/mL; in series [1] (PBS pH 6.5, 37° C., time 90 min) it was less than 1000 ng/mL. In addition, the Concentration in series [1] (PBS pH 6.5, 37° C., time 1200 min) is less than 1000 ng/mL. Also, the “AUC90 (area under the concentration-versus-time curve)” value in series [1] (setting [2]) is less than 88 µg·min/mL. The “MDC90 (maximum drug concentration)” value in series [1] (setting [2]) was less than 1 µg/mL. The same molecule gave a solubility in “aqueous solubility” of less than 0.04 µg/mL.

Source of the values: patent publication US20090169583A1, “Solid Adsorbates of Hydrophobic Drugs” (Pfizer, Inc., priority 2005, published 2009).
